Measurements published in ChEMBL document CHEMBL1201861, “Genomics of Drug Sensitity in Cancer screening data, Wellcome Trust Sanger Institute”.

Assays:
PFSK-1 = test: cells; type: functional, cell-based; details: Homo sapiens;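 note: cell viability assay measuring how strongly compounds suppress growth of human PFSK-1 cells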
Description: SANGER: Inhibition of human PFSK-1 cell growth in a cell viability assay.

UACC-893 = test: cells; type: functional, cell-based; details: Homo sapiens
Description: SANGER: Inhibition of human UACC-893 cell growth in a cell viability assay.

KU-19-19 = test: cells; type: functional, cell-based; details: Homo sapiens
Description: SANGER: Inhibition of human KU-19-19 cell growth in a cell viability assay.

OAW-28 = test: cells; type: functional, cell-based; details: Homo sapiens;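 note: growth inhibition of OAW-28 cells, read out with a cell viability assay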
Description: SANGER: Inhibition of human OAW-28 cell growth in a cell viability assay.

RL = test: cells; type: functional, cell-based, Homo sapiens; details: Homo sapiens, RL
Description: SANGER: Inhibition of human RL cell growth in a cell viability assay.

COLO-680N = test: cells; type: functional, cell-based; details: Homo sapiens;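 note: cell viability assay used to measure inhibition of COLO-680N cell growth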
Description: SANGER: Inhibition of human COLO-680N cell growth in a cell viability assay.

HCC1806 = test: cells; type: functional, cell-based; details: Homo sapiens;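 note: growth inhibition of the cancer cell line, determined with a cell viability assay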
Description: SANGER: Inhibition of human HCC1806 cell growth in a cell viability assay.

BOKU = test: cells; type: functional, cell-based; details: Homo sapiens;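 note: growth inhibition of the human BOKU cell line, read out by a cell viability assay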
Description: SANGER: Inhibition of human BOKU cell growth in a cell viability assay.

NCI-H1693 = test: cells; type: functional, cell-based; details: Homo sapiens;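 note: growth inhibition of the human cell line, read out with a cell viability assay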
Description: SANGER: Inhibition of human NCI-H1693 cell growth in a cell viability assay.

SKG-IIIa = test: cells; type: functional, cell-based; details: Homo sapiens;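 note: cell growth inhibition, read out with a cell viability assay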
Description: SANGER: Inhibition of human SKG-IIIa cell growth in a cell viability assay.

KP-N-YN = test: cells; type: functional, cell-based; details: Homo sapiens;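 note: growth inhibition of KP-N-YN cells, read out with a cell viability assay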
Description: SANGER: Inhibition of human KP-N-YN cell growth in a cell viability assay.

WSU-NHL = test: cells; type: functional, cell-based, Homo sapiens; details: Homo sapiens, WSU-NHL;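 note: growth inhibition of human WSU-NHL cells, read out with a cell viability assay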
Description: SANGER: Inhibition of human WSU-NHL cell growth in a cell viability assay.

HCC 2998 = test: cells; type: functional, cell-based; details: Homo sapiens;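 note: growth inhibition of human HCC2998 cells, measured with a cell viability read-out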
Description: SANGER: Inhibition of human HCC2998 cell growth in a cell viability assay.

NCI-H1417 = test: cells; type: functional, cell-based, Homo sapiens; details: Homo sapiens, NCI-H1417;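 note: human NCI-H1417 cells, growth inhibition determined with a cell viability readout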
Description: SANGER: Inhibition of human NCI-H1417 cell growth in a cell viability assay.

NCI-H2170 = test: cells; type: functional, cell-based; details: Homo sapiens;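 note: cell viability assay measuring growth inhibition of human NCI-H2170 cancer cells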
Description: SANGER: Inhibition of human NCI-H2170 cell growth in a cell viability assay.

Huh-7 = test: cells; type: functional, cell-based; details: Homo sapiens;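 note: HuH-7 cell growth inhibition, read out with a cell viability assay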
Description: SANGER: Inhibition of human HuH-7 cell growth in a cell viability assay.

LoVo = test: cells; type: functional, cell-based; details: Homo sapiens;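 note: growth inhibition of human LoVo cells, read out with a cell viability assay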
Description: SANGER: Inhibition of human LoVo cell growth in a cell viability assay.

A-375 = test: cells; type: functional, cell-based; details: Homo sapiens;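 note: growth inhibition of A375 cells, read out with a cell viability assay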
Description: SANGER: Inhibition of human A375 cell growth in a cell viability assay.

CaR-1 = test: cells; type: functional, cell-based; details: Homo sapiens;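 note: growth inhibition of human CaR-1 cancer cells, read out with a cell viability assay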
Description: SANGER: Inhibition of human CaR-1 cell growth in a cell viability assay.

LB373-MEL-D = test: cells; type: functional, cell-based, Homo sapiens; details: Homo sapiens, LB373-MEL-D;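 note: growth inhibition of the cell line, read out in a cell viability assay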
Description: SANGER: Inhibition of human LB373-MEL-D cell growth in a cell viability assay.

BL-41 = test: cells; type: functional, cell-based; details: Homo sapiens;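 note: growth inhibition of human BL-41 cells, read out with a cell viability assay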
Description: SANGER: Inhibition of human BL-41 cell growth in a cell viability assay.

A-431 = test: cells; type: functional, cell-based; details: Homo sapiens;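 note: growth inhibition of A-431 cells, determined with a cell viability read-out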
Description: SANGER: Inhibition of human A431 cell growth in a cell viability assay.

THP-1 = test: cells; type: functional, cell-based, Homo sapiens; details: Homo sapiens, THP-1;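 note: growth inhibition of THP-1 cells, read out via a cell viability assay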
Description: SANGER: Inhibition of human THP-1 cell growth in a cell viability assay.

U-698-M = test: cells; type: functional, cell-based, Homo sapiens; details: Homo sapiens, U-698-M
Description: SANGER: Inhibition of human U-698-M cell growth in a cell viability assay.

COLO-792 = test: cells; type: functional, cell-based; details: Homo sapiens
Description: SANGER: Inhibition of human COLO-792 cell growth in a cell viability assay.

EB2 = test: cells; type: functional, cell-based, Homo sapiens; details: Homo sapiens, EB2;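 note: growth inhibition of EB2 cells, read out with a cell viability assay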
Description: SANGER: Inhibition of human EB2 cell growth in a cell viability assay.

PC-14 = test: cells; type: functional, cell-based; details: Homo sapiens;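 note: cell viability assay measuring inhibition of PC-14 cell growth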
Description: SANGER: Inhibition of human PC-14 cell growth in a cell viability assay.

NCI-H1522 = test: cells; type: functional, cell-based, Homo sapiens; details: Homo sapiens, NCI-H1522;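 note: growth inhibition of NCI-H1522 cells, read out with a cell viability assay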
Description: SANGER: Inhibition of human NCI-H1522 cell growth in a cell viability assay.

23132-87 = test: cells; type: functional, cell-based; details: Homo sapiens
Description: SANGER: Inhibition of human 23132-87 cell growth in a cell viability assay.

DMS-79 = test: cells; type: functional, cell-based, Homo sapiens; details: Homo sapiens, DMS-79
Description: SANGER: Inhibition of human DMS-79 cell growth in a cell viability assay.

MHH-ES-1 = test: cells; type: functional, cell-based; details: Homo sapiens
Description: SANGER: Inhibition of human MHH-ES-1 cell growth in a cell viability assay.

OE33 = test: cells; type: functional, cell-based; details: Homo sapiens;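 note: growth inhibition of human OE33 cells, measured by a cell viability assay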
Description: SANGER: Inhibition of human OE33 cell growth in a cell viability assay.

HEC-1 = test: cells; type: functional, cell-based; details: Homo sapiens;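 note: growth inhibition of the cell line, read out with a cell viability assay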
Description: SANGER: Inhibition of human HEC-1 cell growth in a cell viability assay.

EHEB = test: cells; type: functional, cell-based; details: Homo sapiens;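 note: growth inhibition of human EHEB cells, read out with a cell viability assay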
Description: SANGER: Inhibition of human EHEB cell growth in a cell viability assay.

CAL-39 = test: cells; type: functional, cell-based; details: Homo sapiens;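 note: cell viability assay measuring growth inhibition of CAL-39 cells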
Description: SANGER: Inhibition of human CAL-39 cell growth in a cell viability assay.

HLE = test: cells; type: functional, cell-based; details: Homo sapiens;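 note: growth inhibition of human HLE cells, read out by a cell viability assay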
Description: SANGER: Inhibition of human HLE cell growth in a cell viability assay.

COR-L23 = test: cells; type: functional, cell-based; details: Homo sapiens;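 note: cell viability assay measuring how strongly compounds suppress growth of COR-L23 cells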
Description: SANGER: Inhibition of human COR-L23 cell growth in a cell viability assay.

SU-DHL-1 = test: SANGER: Inhibition of human SU-DHL-1 cell growth in a cell viability assay.; type: functional, cell-based; details: Homo sapiens, SU-DHL-1
U2OS = test: cells; type: functional, cell-based, U-2-OS; details: Homo sapiens;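 note: growth inhibition of human U-2-OS cells, determined with a cell viability assay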
Description: SANGER: Inhibition of human U-2-OS cell growth in a cell viability assay.

SW626 = test: cells; type: functional, cell-based; details: Homo sapiens;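 note: growth inhibition of SW626 cells, measured with a cell viability assay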
Description: SANGER: Inhibition of human SW626 cell growth in a cell viability assay.

SAS = test: cells; type: functional, cell-based; details: Homo sapiens;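 note: growth inhibition of SAS cells, read out with a cell viability assay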
Description: SANGER: Inhibition of human SAS cell growth in a cell viability assay.

HuP-T4 = test: cells; type: functional, cell-based; details: Homo sapiens;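 note: cell viability assay measuring how much HuP-T4 cell growth is inhibited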
Description: SANGER: Inhibition of human HuP-T4 cell growth in a cell viability assay.

639-V = test: cells; type: functional, cell-based; details: Homo sapiens;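 note: growth inhibition of 639-V cells, read out with a cell viability assay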
Description: SANGER: Inhibition of human 639-V cell growth in a cell viability assay.

TE-15 = test: cells; type: functional, cell-based, Homo sapiens; details: Homo sapiens, TE-15;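 note: cell viability readout of growth inhibition in TE-15 cells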
Description: SANGER: Inhibition of human TE-15 cell growth in a cell viability assay.

Capan-2 = test: cells; type: functional, cell-based; details: Homo sapiens;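 note: Capan-2 cell growth inhibition, read out with a viability assay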
Description: SANGER: Inhibition of human Capan-2 cell growth in a cell viability assay.

786-0 = test: cells; type: functional, cell-based; details: Homo sapiens
Description: SANGER: Inhibition of human 786-0 cell growth in a cell viability assay.

NCI-H524 = test: cells; type: functional, cell-based, Homo sapiens; details: Homo sapiens, NCI-H524;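 note: growth inhibition of human NCI-H524 cells, read out through a cell viability assay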
Description: SANGER: Inhibition of human NCI-H524 cell growth in a cell viability assay.

COLO-679 = test: cells; type: functional, cell-based; details: Homo sapiens
Description: SANGER: Inhibition of human COLO-679 cell growth in a cell viability assay.

SBC-5 = test: cells; type: functional, cell-based; details: Homo sapiens;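 note: cell viability assay read-out, IC50 is the concentration that inhibits growth of the cells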
Description: SANGER: Inhibition of human SBC-5 cell growth in a cell viability assay.

DG-75 = test: cells; type: functional, cell-based, Homo sapiens; details: Homo sapiens, DG-75;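 note: growth inhibition of DG-75 cells, read out with a cell viability assay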
Description: SANGER: Inhibition of human DG-75 cell growth in a cell viability assay.

ST486 = test: SANGER: Inhibition of human ST486 cell growth in a cell viability assay.; type: functional, cell-based; details: Homo sapiens, ST486
769-P = test: cells; type: functional, cell-based; details: Homo sapiens
Description: SANGER: Inhibition of human 769-P cell growth in a cell viability assay.

NCI-H322M = test: cells; type: functional, cell-based, Homo sapiens; details: Homo sapiens, NCI-H322M;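 note: cell viability assay measuring inhibition of growth of human NCI-H322M cells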
Description: SANGER: Inhibition of human NCI-H322M cell growth in a cell viability assay.

SW1710 = test: cells; type: functional, cell-based; details: Homo sapiens;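 note: growth inhibition of SW1710 cells, determined with a cell viability assay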
Description: SANGER: Inhibition of human SW1710 cell growth in a cell viability assay.

C-33-A = test: cells; type: functional, cell-based; details: Homo sapiens;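 note: cell viability assay measuring growth inhibition of C-33-A cells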
Description: SANGER: Inhibition of human C-33-A cell growth in a cell viability assay.

YAPC = test: cells; type: functional, cell-based; details: Homo sapiens;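 note: growth inhibition of YAPC cells, measured with a cell viability assay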
Description: SANGER: Inhibition of human YAPC cell growth in a cell viability assay.

KYSE-520 cell line = test: cells; type: functional, cell-based; details: Homo sapiens;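 note: growth inhibition of human KYSE-520 cells, read out with a viability assay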
Description: SANGER: Inhibition of human KYSE-520 cell growth in a cell viability assay.

LU-99A = test: cells; type: functional, cell-based; details: Homo sapiens;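 note: growth inhibition of LU-99A cells, read out with a cell viability assay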
Description: SANGER: Inhibition of human LU-99A cell growth in a cell viability assay.

BL-70 = test: SANGER: Inhibition of human BL-70 cell growth in a cell viability assay.; type: functional, cell-based; details: Homo sapiens, BL-70
MDA-MB-157 = test: cells; type: functional, cell-based; details: Homo sapiens
Description: SANGER: Inhibition of human MDA-MB-157 cell growth in a cell viability assay.

In the case of `CCCCCCCCCCCC1=C(O)C(=O)C=C(O)C1=O` [EMBELIN], the IC50 (PFSK-1) is reported as 14000 nM, the IC50 (UACC-893) is reported as 21700 nM and the IC50 (KU-19-19) is reported as > 32000 nM. For the same compound, the IC50 (OAW-28) was 20000 nM, the IC50 (RL) was > 32000 nM and the IC50 (COLO-680N) was 19400 nM. The IC50 (HCC1806) was > 32000 nM, the IC50 (BOKU) was 10700 nM and the IC50 (NCI-H1693) was > 32000 nM. The IC50 (SKG-IIIa) was > 32000 nM, the IC50 (KP-N-YN) was > 32000 nM and the IC50 (WSU-NHL) was 13600 nM. For the same compound, the IC50 (HCC 2998) was 6800 nM, the IC50 (NCI-H1417) was > 32000 nM and the IC50 (NCI-H2170) was 12100 nM. For the same compound, the IC50 (Huh-7) was > 32000 nM, the IC50 (LoVo) was 3870 nM and the IC50 (A-375) was 3570 nM. For the same compound, the IC50 (CaR-1) was > 32000 nM, the IC50 (LB373-MEL-D) was 24200 nM and the IC50 (BL-41) was 5500 nM. The IC50 (A-431) was 5760 nM, the IC50 (THP-1) was 29800 nM and the IC50 (U-698-M) was 25200 nM. The IC50 (COLO-792) was > 32000 nM, the IC50 (EB2) was 6170 nM and the IC50 (PC-14) was 15600 nM. For the same compound, the IC50 (NCI-H1522) was 30600 nM, the IC50 (23132-87) was 23300 nM and the IC50 (DMS-79) was > 32000 nM. It also gave an IC50 (MHH-ES-1) of 15800 nM, an IC50 (OE33) of 13300 nM and an IC50 (HEC-1) of 13000 nM. The IC50 (EHEB) was > 32000 nM, the IC50 (CAL-39) was 4480 nM and the IC50 (HLE) was 5930 nM. The IC50 (COR-L23) was 9630 nM, the IC50 (SU-DHL-1) was > 32000 nM and the IC50 (U2OS) was > 32000 nM. For the same compound, the IC50 (SW626) was 9350 nM, the IC50 (SAS) was 16800 nM and the IC50 (HuP-T4) was 7560 nM. For the same compound, the IC50 (639-V) was > 32000 nM, the IC50 (TE-15) was 7240 nM and the IC50 (Capan-2) was 18300 nM. The IC50 (786-0) was 8640 nM, the IC50 (NCI-H524) was > 32000 nM and the IC50 (COLO-679) was 4200 nM. The IC50 (SBC-5) was > 32000 nM, the IC50 (DG-75) was > 32000 nM and the IC50 (ST486) was 8300 nM. The IC50 (769-P) was 8470 nM, the IC50 (NCI-H322M) was > 32000 nM and the IC50 (SW1710) was 14100 nM. For the same compound, the IC50 (C-33-A) was > 32000 nM, the IC50 (YAPC) was > 32000 nM and the IC50 (KYSE-520 cell line) was 18500 nM. For the same compound, the IC50 (LU-99A) was > 32000 nM, the IC50 (BL-70) was 5830 nM and the IC50 (MDA-MB-157) was 6880 nM.
`C/C(=C\c1csc(C)n1)[C@@H]1C[C@@H]2O[C@]2(C)CCC[C@H](C)[C@H](O)[C@@H](C)C(=O)C(C)(C)[C@@H](O)CC(=O)O1` [PATUPILONE] was tested, and the IC50 (PFSK-1) was 13.3 nM, the IC50 (UACC-893) was > 32 nM and the IC50 (KU-19-19) was > 32 nM. The IC50 (OAW-28) was 7.95 nM, the IC50 (RL) was > 32 nM and the IC50 (COLO-680N) was 7.16 nM. For the same compound, the IC50 (HCC1806) was 1.38 nM, the IC50 (BOKU) was > 32 nM and the IC50 (NCI-H1693) was > 32 nM. The IC50 (SKG-IIIa) was > 32 nM, the IC50 (KP-N-YN) was > 32 nM and the IC50 (WSU-NHL) was 4.15 nM. It also gave an IC50 (HCC 2998) of 1.05 nM, an IC50 (NCI-H1417) of 21 nM and an IC50 (NCI-H2170) of 5.22 nM. For the same compound, the IC50 (Huh-7) was 7.11 nM, the IC50 (LoVo) was 1.85 nM and the IC50 (A-375) was 0.05 nM. The IC50 (CaR-1) was > 32 nM, the IC50 (LB373-MEL-D) was 18.1 nM and the IC50 (BL-41) was 1.35 nM. The IC50 (A-431) was < 0.125 nM, the IC50 (THP-1) was 23.5 nM and the IC50 (U-698-M) was 7.76 nM. For the same compound, the IC50 (COLO-792) was > 32 nM, the IC50 (EB2) was 3.69 nM and the IC50 (PC-14) was 4.21 nM. The IC50 (NCI-H1522) was > 32 nM, the IC50 (23132-87) was 3.67 nM and the IC50 (DMS-79) was > 32 nM. It also gave an IC50 (MHH-ES-1) of 0.893 nM, an IC50 (OE33) of 7.63 nM and an IC50 (HEC-1) of 9.09 nM. The IC50 (EHEB) was 28.9 nM, the IC50 (CAL-39) was 0.411 nM and the IC50 (HLE) was 0.0826 nM. For the same compound, the IC50 (COR-L23) was 1.35 nM, the IC50 (SU-DHL-1) was > 32 nM and the IC50 (U2OS) was > 32 nM. For the same compound, the IC50 (SW626) was 1.98 nM, the IC50 (SAS) was > 32 nM and the IC50 (HuP-T4) was 2.54 nM. It also gave an IC50 (639-V) of 0.218 nM, an IC50 (TE-15) of 0.225 nM and an IC50 (Capan-2) of 30 nM. For the same compound, the IC50 (786-0) was 0.11 nM, the IC50 (NCI-H524) was 23.1 nM and the IC50 (COLO-679) was 0.394 nM. The IC50 (SBC-5) was 0.912 nM, the IC50 (DG-75) was > 32 nM and the IC50 (ST486) was 0.721 nM. For the same compound, the IC50 (769-P) was 0.753 nM, the IC50 (NCI-H322M) was > 32 nM and the IC50 (SW1710) was < 0.125 nM. The IC50 (C-33-A) was 3.27 nM, the IC50 (YAPC) was > 32 nM and the IC50 (KYSE-520 cell line) was 10.4 nM. The IC50 (LU-99A) was 5.33 nM, the IC50 (BL-70) was 2.16 nM and the IC50 (MDA-MB-157) was > 32 nM.
